This is an account of results in ChEMBL document CHEMBL3045800 (2003).

One assay deals with Oryza sativa. It counts as functional,  cv. Nipponbare.
The subject of assay [1] is Pyricularia oryzae. As to the kind of experiment: Inhibition of appressorium formation in Magnaporthe oryzae at 100 ppm after 48 hr by microscopy based cellulose membrane method. It counts as functional. The note with it: read-out: INH.
The subject of assay [2] is Pyricularia oryzae. Nature of the assay: Inhibition of mycelial growth in Magnaporthe oryzae at 800 ppm after 7 days by hyphal growth inhibition assay. It counts as functional. Particulars: 168 h, read-out: INH.
The subject of assay [3] is Pyricularia oryzae. Nature of the assay: Inhibition of appressorium formation in Magnaporthe oryzae at 40 ppm after 48 hr by microscopy based cellulose membrane method. It counts as functional. Particulars: read-out: INH.
For assay [4], the system named is Pyricularia oryzae. Nature of the assay: Inhibition of spore germination in Magnaporthe oryzae at 40 ppm after 48 hr. It counts as functional. Particulars: read-out: INH.
For assay [5], the system named is Pyricularia oryzae. Nature of the assay: Inhibition of mycelial growth in Magnaporthe oryzae at 400 ppm after 7 days by hyphal growth inhibition assay. It counts as functional. The note with it: 168 h, read-out: INH.
Assay [6] deals with Pyricularia oryzae. As to the kind of experiment: Inhibition of mycelial growth in Magnaporthe oryzae at 200 ppm after 7 days by hyphal growth inhibition assay. It counts as functional. Particulars: 168 h, read-out: INH.
Assay [7] concerns Pyricularia oryzae. As to the kind of experiment: Inhibition of appressorium formation in Magnaporthe oryzae at 20 ppm after 48 hr by microscopy based cellulose membrane method. It counts as functional. The note with it: read-out: INH.
Assay [8] concerns Pyricularia oryzae. Nature of the assay: Inhibition of appressorium formation in Magnaporthe oryzae at 80 ppm after 48 hr by microscopy based cellulose membrane method. It counts as functional. Particulars: read-out: INH.
Assay [9] has as its system Pyricularia oryzae. Nature of the assay: Inhibition of mycelial growth in Magnaporthe oryzae at 1000 ppm after 7 days by hyphal growth inhibition assay. It counts as functional. The note with it: 168 h, read-out: INH.
Assay [10] concerns Pyricularia oryzae. As to the kind of experiment: Inhibition of spore germination in Magnaporthe oryzae at 20 ppm after 48 hr. It counts as functional. Particulars: read-out: INH.
The test system of assay [11] is Pyricularia oryzae. Nature of the assay: Inhibition of spore germination in Magnaporthe oryzae at 100 ppm after 48 hr. It counts as functional. Particulars: read-out: INH.
The test system of assay [12] is Pyricularia oryzae. Nature of the assay: Inhibition of spore germination in Magnaporthe oryzae at 80 ppm after 48 hr. It counts as functional. Particulars: read-out: INH.

Take `Cn1ncc(C(=O)O)c1Cl`: the ED80 in the assay on Oryza sativa is above 5 mg.
As for `Cn1cc(C(=O)O)c(Cl)n1`, the ED80 with Oryza sativa came to 0.5 mg.
`COC(=O)Nc1cc(Cl)nn1C` gave an ED80 in the assay with Oryza sativa above 5 mg.
Regarding `Cn1nc(Cl)cc1CC(=O)O`, the ED80 with Oryza sativa is given as 5 mg.
In turn, `CC(=O)c1cc(Cl)nn1C` returned an ED80 in the assay on Oryza sativa of 5 mg.
Regarding `Cn1nc(Cl)cc1C=O`, in the assay on Oryza sativa, the ED80 is above 5 mg.
On to `COC(=O)c1cc(Cl)nn1C`, for which the ED80 with Oryza sativa came out at 0.05 mg.
In the assay on Oryza sativa, `Cn1nc(Br)cc1C(=O)O` displayed an ED80 of 0.05 mg.
Still for that read-out and setting: the result for `Cc1cc(C(=O)O)n(C)n1` reads 0.5 mg; that for `Cn1nccc1C(=O)O`, above 5 mg.
For `Cn1nc(Cl)cc1C(=O)O` [3-CHLORO-1-METHYL-1H-PYRAZOLE-5-CARBOXYLIC ACID], the inhibition at 100 ppm with Pyricularia oryzae [1] was found to be 41.6%; in the assay on Pyricularia oryzae [11] it was 35.4%. Also, the inhibition at 800 ppm with Pyricularia oryzae [2] came out at 0%. In addition, the inhibition at 40 ppm in the assay with Pyricularia oryzae [3] and in the assay with Pyricularia oryzae [4] was 0% in each case. The molecule further had an ED80 with Oryza sativa of 0.05 mg. The inhibition at 400 ppm in the assay with Pyricularia oryzae [5] worked out at 0%. Further, in the assay with Pyricularia oryzae [6], the inhibition at 200 ppm came out at 0%. Besides, the inhibition at 20 ppm in the assay on Pyricularia oryzae [7] and with Pyricularia oryzae [10] was 0% in each case. The inhibition at 80 ppm stood at 10% in the assay on Pyricularia oryzae [8] and 0% in the assay on Pyricularia oryzae [12]. Besides, in the assay with Pyricularia oryzae [9], the inhibition at 1000 ppm is 47.5%.
